Measurements reported in patent US6348309B1, “Process for inactivating viruses in blood and blood products” (priority 1989, dated 2002).
Marks after values point to notes of the source that are not given here.

How the values were obtained:
[1] = target: T1, coagulation factor IX (Homo sapiens, UniProt P00740); assay: Coagulation factor activity in human plasma right after MB addition (Example 9); format: biochemical; details: no light
T1 construct: Varying amounts of MB were added to human plasma (2 ml aliquots); from tissue; host or cells: human plasma
T1 sequence (P00740 47-461): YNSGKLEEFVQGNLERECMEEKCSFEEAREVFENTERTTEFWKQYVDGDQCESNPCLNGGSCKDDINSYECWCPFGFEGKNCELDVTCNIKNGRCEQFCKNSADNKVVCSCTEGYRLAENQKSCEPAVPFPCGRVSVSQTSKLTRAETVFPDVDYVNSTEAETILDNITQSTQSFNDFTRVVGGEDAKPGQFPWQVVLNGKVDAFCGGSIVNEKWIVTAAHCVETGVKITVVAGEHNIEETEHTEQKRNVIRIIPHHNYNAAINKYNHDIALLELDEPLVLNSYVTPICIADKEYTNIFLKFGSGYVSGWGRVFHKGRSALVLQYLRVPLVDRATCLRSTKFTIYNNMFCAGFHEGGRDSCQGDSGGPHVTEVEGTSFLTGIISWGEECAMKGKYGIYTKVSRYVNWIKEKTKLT

[2] = target: T2, factor V (Homo sapiens, UniProt P12259); assay: Factor V content of plasma after MB and adsorbing agent (Example 14); format: biochemical; details: fresh plasma + MB 10 μM, no adsorbing agent
T2 construct: MB was added to 250 ml fresh plasma; from tissue; host or cells: fresh plasma
T2 sequence (P12259 29-2224): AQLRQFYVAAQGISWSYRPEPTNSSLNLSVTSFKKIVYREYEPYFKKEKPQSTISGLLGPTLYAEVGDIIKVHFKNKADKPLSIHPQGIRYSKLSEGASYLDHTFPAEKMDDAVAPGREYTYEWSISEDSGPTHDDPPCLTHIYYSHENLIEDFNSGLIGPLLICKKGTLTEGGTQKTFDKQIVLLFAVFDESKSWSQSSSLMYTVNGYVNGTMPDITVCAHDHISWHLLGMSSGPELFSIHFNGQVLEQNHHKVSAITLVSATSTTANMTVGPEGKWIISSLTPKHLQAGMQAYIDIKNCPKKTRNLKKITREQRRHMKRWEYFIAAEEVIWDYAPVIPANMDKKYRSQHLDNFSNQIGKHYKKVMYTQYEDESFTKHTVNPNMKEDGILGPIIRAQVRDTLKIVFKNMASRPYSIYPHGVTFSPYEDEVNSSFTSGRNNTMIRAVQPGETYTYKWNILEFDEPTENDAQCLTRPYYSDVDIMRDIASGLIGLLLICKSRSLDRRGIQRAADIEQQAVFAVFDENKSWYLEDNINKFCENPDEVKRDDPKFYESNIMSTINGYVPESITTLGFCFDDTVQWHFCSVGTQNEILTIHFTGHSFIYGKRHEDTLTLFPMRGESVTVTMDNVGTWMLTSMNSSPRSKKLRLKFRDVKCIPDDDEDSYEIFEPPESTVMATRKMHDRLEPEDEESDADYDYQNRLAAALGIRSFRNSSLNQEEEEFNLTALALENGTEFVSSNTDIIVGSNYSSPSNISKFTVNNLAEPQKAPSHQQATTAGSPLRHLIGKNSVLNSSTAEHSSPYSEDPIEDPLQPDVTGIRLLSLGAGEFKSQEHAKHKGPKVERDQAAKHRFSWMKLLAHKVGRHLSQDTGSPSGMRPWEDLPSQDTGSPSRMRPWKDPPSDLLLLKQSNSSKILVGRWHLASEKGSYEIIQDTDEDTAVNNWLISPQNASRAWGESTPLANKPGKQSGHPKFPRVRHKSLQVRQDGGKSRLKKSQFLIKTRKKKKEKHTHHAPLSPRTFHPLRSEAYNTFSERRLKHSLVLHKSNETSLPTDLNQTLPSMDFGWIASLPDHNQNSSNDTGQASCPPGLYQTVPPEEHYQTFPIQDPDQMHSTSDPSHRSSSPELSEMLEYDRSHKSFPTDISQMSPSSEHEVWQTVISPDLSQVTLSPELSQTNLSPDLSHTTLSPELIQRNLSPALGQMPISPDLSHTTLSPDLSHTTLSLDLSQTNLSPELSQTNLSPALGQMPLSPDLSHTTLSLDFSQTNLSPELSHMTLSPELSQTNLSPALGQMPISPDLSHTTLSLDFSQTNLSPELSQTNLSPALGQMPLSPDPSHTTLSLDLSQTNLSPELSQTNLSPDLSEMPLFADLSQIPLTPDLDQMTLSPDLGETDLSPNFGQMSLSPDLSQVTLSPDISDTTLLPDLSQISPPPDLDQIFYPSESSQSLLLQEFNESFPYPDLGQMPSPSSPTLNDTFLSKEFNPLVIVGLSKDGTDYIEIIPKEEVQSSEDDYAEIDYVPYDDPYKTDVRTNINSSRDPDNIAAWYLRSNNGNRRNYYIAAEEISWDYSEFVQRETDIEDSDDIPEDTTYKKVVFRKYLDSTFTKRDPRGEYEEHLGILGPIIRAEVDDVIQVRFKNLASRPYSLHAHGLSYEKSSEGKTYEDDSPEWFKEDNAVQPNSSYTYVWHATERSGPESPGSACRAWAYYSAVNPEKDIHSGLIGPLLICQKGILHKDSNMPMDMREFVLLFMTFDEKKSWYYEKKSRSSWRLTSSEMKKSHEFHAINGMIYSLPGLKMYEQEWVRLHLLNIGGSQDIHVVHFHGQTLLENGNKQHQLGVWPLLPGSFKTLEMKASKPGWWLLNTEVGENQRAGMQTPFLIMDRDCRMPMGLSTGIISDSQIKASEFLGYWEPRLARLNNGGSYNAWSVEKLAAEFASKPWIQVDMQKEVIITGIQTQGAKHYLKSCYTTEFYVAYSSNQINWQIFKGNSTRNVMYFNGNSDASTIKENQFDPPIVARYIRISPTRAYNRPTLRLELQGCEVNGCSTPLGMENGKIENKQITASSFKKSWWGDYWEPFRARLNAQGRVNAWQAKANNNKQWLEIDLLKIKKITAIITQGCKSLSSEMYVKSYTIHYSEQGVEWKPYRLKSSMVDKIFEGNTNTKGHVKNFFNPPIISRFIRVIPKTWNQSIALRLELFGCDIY

[3] = target: T3, coagulation factor V (Homo sapiens, UniProt P12259); assay: Coagulation factor activity in human plasma right after MB addition (Example 9); format: biochemical; details: no light
T3 construct: Varying amounts of MB were added to human plasma (2 ml aliquots); from tissue; host or cells: human plasma
T3 sequence (P12259 29-2224): as above

[4] = system: Vesicular Stomatitis; format: cell-based
[5] = system: HIV-1; assay: MB/light virus inactivation in plasma (Example 6, Table VI); format: cell-based; details: illumination 10 min
[6] = system: Suid Herpes Type 1; format: cell-based
[7] = system: Influenza; format: cell-based
[8] = system: Hog Cholera; format: cell-based
[9] = system: adenovirus; assay: Photodynamic treatment of adenovirus with pre-incubation in the dark, titrated on FL cells (Example 7); format: cell-based; details: MB 1 μM; for Virus Titer: illumination 30 min 150,000 Lux
[10] = system: Bovine Herpes; assay: MB/light virus inactivation in plasma (Example 6, Table VI); format: cell-based; details: illumination 30 min; * production conditions, plastic bag 250-300 ml plasma
[11] = system: vesicular stomatitis virus (VSV); format: cell-based
[12] = system: HIV-2; assay: MB/light virus inactivation in plasma (Example 6, Table VI); format: cell-based; details: illumination 15 min; * production conditions, plastic bag 250-300 ml plasma
[13] = system: Calici; format: cell-based

Q: For `CN(C)c1ccc2nc3ccc(=[N+](C)C)cc-3sc2c1` [MB, methylene blue], which “Factor IX” value ([1]; Methylene Blue 1 μM) is on record?
A: 1.9 E/ml

Q: And the “Factor IX” value ([1]; Methylene Blue 2.5 μM)?
A: 1.6 E/ml

Q: What about the “Factor IX” value ([1]; Methylene Blue 5 μM) of the same compound?
A: 1.45 E/ml

Q: What about the “Factor IX” value ([1]; Methylene Blue 10 μM) of the same compound?
A: 1.20 E/ml

Q: What about the “Factor IX” value ([1]; Methylene Blue 20 μM) of the same compound?
A: 1.10 E/ml

Q: And the “MB concentration from which factor IX activity is inhibited” value [1]?
A: 2.5 µM

Q: And the “Factor V” value [2]?
A: 0.96 U/ml

Q: And the “Factor V” value ([3]; Methylene Blue 1 μM)?
A: 0.76 E/ml

Q: What about the “Factor V” value ([3]; Methylene Blue 2.5 μM) of the same compound?
A: 0.78 E/ml

Q: What about the “Factor V” value ([3]; Methylene Blue 5 μM) of the same compound?
A: 0.74 E/ml

Q: What about the “Factor V” value ([3]; Methylene Blue 10 μM) of the same compound?
A: 0.54 E/ml

Q: What about the “Factor V” value ([3]; Methylene Blue 20 μM) of the same compound?
A: 0.44 E/ml

Q: And the “MB concentration from which factor V activity is inhibited” value [3]?
A: about 10 μM

Q: What about the “Inactivation Rate” value [4] of the same compound?
A: >4.89 * log10 TCID50

Q: What about the “Inactivation Rate” value [5] of the same compound?
A: >6.50 log10 TCID50

Q: And the “Inactivation Rate” value [6]?
A: 4.43 * log10 TCID50

Q: And the “Inactivation Rate” value [7]?
A: 5.10 log10 TCID50

Q: And the “Inactivation Rate” value [8]?
A: >5.92 * log10 TCID50

Q: And the Virus Titer ([9]; pre-incubation 0 h)?
A: 6.0 log10 TCID50

Q: What about the Virus Titer ([9]; pre-incubation 1 h) of the same compound?
A: 5.5 log10 TCID50

Q: What about the Virus Titer ([9]; pre-incubation 4 h) of the same compound?
A: 6.0 log10 TCID50

Q: And the Virus Titer ([9]; pre-incubation 24 h)?
A: 6.0 log10 TCID50

Q: And the “change in viral infectivity” value ([9]; regardless of the pre-incubation time)?
A: no change in viral infectivity

Q: What about the “Inactivation Rate” value [10] of the same compound?
A: >8.11 * log10 TCID50

Q: And the “reduction of infectious titer of VSV by irradiation” value [11]?
A: more than 6 log10

Q: What about the “Inactivation Rate” value [12] of the same compound?
A: >3.81 * log10 TCID50

Q: And the “Inactivation Rate” value [13]?
A: >3.9 * log10 TCID50
